Measurements: publication PMC7665585, “Antidepressive effect of an inward rectifier K^+ channel blocker peptide, tertiapin-RQ” (PLoS ONE, 2020)
Bridge positions count the residues as written; N and C are the ends. Ends that are not written are not given here. Peptide text beside a SMILES is read from it.

Molecular target: T1, rat ROMK (Rattus norvegicus, UniProt P35560)
T1 construct: expressed in transfected cells; host or cells: 293T cell line 208-4 (lentiviral transduction, GFP coexpressed)
T1 sequence (P35560 1-391): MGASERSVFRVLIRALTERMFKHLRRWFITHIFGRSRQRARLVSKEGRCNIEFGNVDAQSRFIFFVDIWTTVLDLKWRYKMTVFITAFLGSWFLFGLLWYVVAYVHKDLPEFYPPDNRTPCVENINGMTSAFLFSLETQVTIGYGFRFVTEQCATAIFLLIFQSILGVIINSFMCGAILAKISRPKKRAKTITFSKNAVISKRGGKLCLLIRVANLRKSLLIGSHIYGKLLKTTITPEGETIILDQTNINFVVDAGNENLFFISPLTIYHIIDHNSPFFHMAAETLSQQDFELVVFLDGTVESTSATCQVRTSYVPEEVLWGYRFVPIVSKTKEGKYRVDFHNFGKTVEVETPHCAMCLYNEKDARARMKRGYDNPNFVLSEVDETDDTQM
Assay: Whole-cell patch-clamp of ROMK currents in 208–4 cells
Assay type: cell-based
Conditions: blockade at 1 μM estimated from fitted Hill curve (four parameters), whole-cell conductance, n = 3–6
Excerpt: The cDNAs for rat ROMK and mouse GIRK1, 2, and 4 were generously donated by Drs Mikio Hayashi (Kansai Medical University) and David Weaver (Vanderbilt University). The ROMK channels were stably expressed by a cell line, 208–4, which was transduced with lentiviral vectors coexpressing the channel and green fluorescent protein (GFP) as described previously. The GIRK genes, cloned in a pCMV6 plasmid (Origene Technologies Inc, Rockville, MD), were transiently expressed in 293T cells with calcium phosphate transfection. GIRK channel currents were recorded 24 h after transfection.
Cells grown on small cover glasses (3 × 18 mm) were placed in a recording chamber. Whole-cell currents were recorded in Tyrode solution using an Axopatch 200B amplifier (Axon Instruments, Foster City, CA) at 25°C. Tyrode solution contained (in mM): NaCl 140, KCl 5.4, NaH2PO4 0.33, CaCl2 2, MgCl2 1, HEPES 5, and glucose 5.5 (pH 7.4 adjusted with NaOH). High K^+ Tyrode solution (KCL 50 mM, NaCl 95 mM, and others were the same as standard Tyrode solution) was used for the recording of GIRK channels. Patch pipettes pulled from borosilicate glass (Narishige, Tokyo, Japan) were filled with an internal solution containing (in mM): K-aspartate 66, KCl 71.5, KH2PO4 1, EGTA 5, HEPES 5, and MgATP 3 (pH 7.4 adjusted with KOH). Recordings were digitized at 10 kHz, and low-pass filtered at 2 kHz. ROMK, Kir2.1, and GIRK currents were evoked with step pulses of 400 msec from -150 mV to 10 mV in 10 mV increments from a holding potential of -70 mV. Whole-cell currents were recorded 60 sec after the peptide application and those from 100 to 300 msec of the step pulses were averaged. Liquid junction potential or capacitive transient was not corrected or compensated. Whole-cell conductance was calculated as the slope of the current-voltage (I-V) relationship from -140 mV to -100 mV and normalized to the initial value (0 μM TPN), in which BaCl2-resistant current was subtracted and indicted as a percentage.

Molecule | Activity (ROMK channel blocking activity, percentage of blockade at 1 μM)
TPN-RQ(C14S) [Peptide 47] | - (-, <20%)
TPN 11–18 [Peptide 14] | - (-, <20%)
TPN 1–8 (ALCNCNRI) [Peptide 4, Partial TPN peptide (8 amino acids)] | - (-, <20%)

Same assay, conditions: blockade at 1 μM estimated from fitted Hill curve (four parameters), whole-cell conductance, n = 3–6, read-out: Activity (ROMK channel blocking activity, percentage of blockade at 1 μM)

Molecule | inhibition at 1 µM [%]
RRIIPHAK-NH2 [Peptide 29, TPN-RQ 7-13(Q13A) + K] | < 20
CC[C@H](C)[C@@H]1NC(=O)[C@H](CCCNC(=N)N)NC(=O)[C@H](CCCNC(=N)N)NC(=O)[C@H](CC(N)=O)NC(=O)[C@@H]2CSSC[C@@H](C(=O)NCC(=O)N[C@@H](CCCCN)C(=O)N[C@@H](CCCCN)C(N)=O)NC(=O)[C@H](CCCCN)NC(=O)[C@H](CCCCN)NC(=O)[C@H](Cc3c[nH]c4ccccc34)NC(=O)[C@H](CSSC[C@H](NC(=O)[C@H](CC(C)C)NC(=O)[C@H](C)N)C(=O)N[C@@H](CC(N)=O)C(=O)N2)NC(=O)[C@H](CCC(N)=O)NC(=O)[C@H](Cc2c[nH]cn2)NC(=O)[C@H](C)NC(=O)[C@H]([C@@H](C)CC)NC1=O [Peptide 62, TPN-RQ(P11A)] (H-ALCNCNRRIIAHQCWKKCGKK-NH2; disulfide 3-14, 5-18) | > 80
CC[C@H](C)[C@@H]1NC(=O)[C@H](CCCNC(=N)N)NC(=O)[C@H](CCCNC(=N)N)NC(=O)[C@H](CC(N)=O)NC(=O)[C@H](CO)NC(=O)[C@H](CC(N)=O)NC(=O)[C@@H](NC(=O)[C@@H](N)CCC(N)=O)CSSC[C@@H](C(=O)N[C@@H](Cc2c[nH]c3ccccc23)C(=O)N[C@@H](CCCCN)C(N)=O)NC(=O)[C@H](CCC(N)=O)NC(=O)[C@H](CCCCN)NC(=O)[C@@H]2CCCN2C(=O)[C@H]([C@@H](C)CC)NC1=O [Peptide 44, Q + TPN-RQ 3-16(C5S/H12K)] (H-QCNSNRRIIPKQCWK-NH2; disulfide 2-13) | < 20
IIPHMCWK-NH2 [Peptide 12, TPN 9–16] | < 20
IPHMCWKK-NH2 [Peptide 13, TPN 10–17] | < 20
RIIIPHMC-NH2 [Peptide 10, TPN 7–14] | < 20
ARIIPHQK-NH2 [Peptide 23, TPN-RQ 7-13(R7A) + K] | < 20
CC[C@H](C)[C@@H]1NC(=O)[C@H](CCCNC(=N)N)NC(=O)[C@H](CCCNC(=N)N)NC(=O)[C@H](CC(N)=O)NC(=O)[C@@H](N)CSSC[C@@H](C(=O)N[C@@H](Cc2c[nH]c3ccccc23)C(=O)N[C@@H](CCCCN)C(=O)N[C@@H](CCCCN)C(N)=O)NC(=O)[C@H](CCC(N)=O)NC(=O)[C@H](CCCCN)NC(=O)[C@@H]2CCCN2C(=O)[C@H]([C@@H](C)CC)NC1=O [Peptide 38, TPN-RQ 5-17(H12K)] (H-CNRRIIPKQCWKK-NH2; disulfide 1-10) | < 20
CC[C@H](C)[C@@H]1NC(=O)[C@H](CCCNC(=N)N)NC(=O)[C@H](CCCNC(=N)N)NC(=O)[C@H](CC(N)=O)NC(=O)[C@@H](N)CSSC[C@@H](C(=O)N[C@@H](Cc2c[nH]c3ccccc23)C(=O)N[C@@H](CCCCN)C(=O)N[C@@H](CCCCN)C(N)=O)NC(=O)[C@H](CCC(N)=O)NC(=O)[C@H](Cc2c[nH]cn2)NC(=O)[C@@H]2CCCN2C(=O)[C@H]([C@@H](C)CC)NC1=O [Peptide 37, TPN-RQ 5–17] (H-CNRRIIPHQCWKK-NH2; disulfide 1-10) | < 20
CC[C@H](C)[C@@H]1NC(=O)[C@H](CCCNC(=N)N)NC(=O)[C@H](CC(N)=O)NC(=O)[C@@H]2CSSC[C@@H](C(=O)NCC(=O)N[C@@H](CCCCN)C(=O)N[C@@H](CCCCN)C(N)=O)NC(=O)[C@H](CCCCN)NC(=O)[C@H](CCCCN)NC(=O)[C@H](Cc3c[nH]c4ccccc34)NC(=O)[C@H](CSSC[C@H](NC(=O)[C@H](CC(C)C)NC(=O)[C@H](C)N)C(=O)N[C@@H](CC(N)=O)C(=O)N2)NC(=O)[C@H](CCC(N)=O)NC(=O)[C@H](Cc2c[nH]cn2)NC(=O)[C@@H]2CCCN2C(=O)[C@H]([C@@H](C)CC)NC1=O [Peptide 51, TPN-RQ(Δ8R)] (H-ALCNCNRIIPHQCWKKCGKK-NH2; disulfide 3-13, 5-17) | 40 to 60
